According to PubChem BioAssay AID1259407 (Chemical Carcinogenesis Research Information System (CCRIS), 2018):
The source made the active and inactive calls. How the calls were made is not given here.

Tested on: CCRIS mutagenicity, Ames/micronucleus/aberration tests
Test: CCRIS mutagenicity studies
[1] = Test System: AMES SALMONELLA TYPHIMURIUM, Strain/Indicator: TA98, Metabolic Activation: NONE, Method: PREINCUBATION
[2] = Test System: AMES SALMONELLA TYPHIMURIUM, Strain/Indicator: TA100, Metabolic Activation: NONE, Method: PREINCUBATION
[3] = Test System: AMES SALMONELLA TYPHIMURIUM, Strain/Indicator: TA98, Metabolic Activation: NONE, Method: STANDARD PLATE
[4] = Test System: AMES SALMONELLA TYPHIMURIUM, Strain/Indicator: TA98, Metabolic Activation: RAT, LIVER, S-9, AROCLOR 1254, Method: STANDARD PLATE
[5] = Test System: AMES SALMONELLA TYPHIMURIUM, Strain/Indicator: TA100, Metabolic Activation: NONE, Method: STANDARD PLATE
[6] = Test System: AMES SALMONELLA TYPHIMURIUM, Strain/Indicator: TA100, Metabolic Activation: RAT, LIVER, S-9, AROCLOR 1254, Method: STANDARD PLATE
[7] = Test System: AMES SALMONELLA TYPHIMURIUM, Strain/Indicator: TA1535, Metabolic Activation: NONE, Method: STANDARD PLATE
[8] = Test System: AMES SALMONELLA TYPHIMURIUM, Strain/Indicator: TA1537, Metabolic Activation: NONE, Method: STANDARD PLATE

**Q.** What does the source list for `O=Nc1cc2c3ccccc3ccc2c2ccccc12`?
**A.** mutagenic call [1]: active; positive; mutagenic call (Test System: AMES SALMONELLA TYPHIMURIUM, Strain/Indicator: TA98, Metabolic Activation: RAT, LIVER, S-9, AROCLOR 1254, Method: PREINCUBATION): active; positive; mutagenic call [2]: active; positive; mutagenic call (Test System: AMES SALMONELLA TYPHIMURIUM, Strain/Indicator: TA100, Metabolic Activation: RAT, LIVER, S-9, AROCLOR 1254, Method: PREINCUBATION): active; positive; mutagenic call (Test System: CHINESE HAMSTER OVARY, Strain/Indicator: CHO-K1-BH4 (HGPRT)/6-THIOGUANINE, Metabolic Activation: NONE, Method: STANDARD PLATE): active; positive; mutagenic call (Test System: CHINESE HAMSTER OVARY, Strain/Indicator: CHO-UV5 (HGPRT)/6-THIOGUANINE, Metabolic Activation: NONE, Method: STANDARD PLATE): active; positive

**Q.** With `O=[N+]([O-])C1=Cc2ccc3ccc4cccc5cc1c2c3c45` as the molecule, how does the mutagenic call [3] read?
**A.** active; positive

**Q.** And the mutagenic call [4]?
**A.** active; positive

**Q.** And the mutagenic call [5]?
**A.** active; positive

**Q.** And the mutagenic call [6]?
**A.** inactive; negative

**Q.** And the mutagenic call [7]?
**A.** inactive; negative

**Q.** And the mutagenic call (Test System: AMES SALMONELLA TYPHIMURIUM, Strain/Indicator: TA1535, Metabolic Activation: RAT, LIVER, S-9, AROCLOR 1254, Method: STANDARD PLATE)?
**A.** inactive; negative

**Q.** What about the mutagenic call [8] of the same molecule?
**A.** active; positive

**Q.** And the mutagenic call (Test System: AMES SALMONELLA TYPHIMURIUM, Strain/Indicator: TA1537, Metabolic Activation: RAT, LIVER, S-9, AROCLOR 1254, Method: STANDARD PLATE)?
**A.** active; positive

**Q.** And the mutagenic call (Test System: AMES SALMONELLA TYPHIMURIUM, Strain/Indicator: TA1538, Metabolic Activation: NONE, Method: STANDARD PLATE)?
**A.** active; positive

**Q.** And the mutagenic call (Test System: AMES SALMONELLA TYPHIMURIUM, Strain/Indicator: TA1538, Metabolic Activation: RAT, LIVER, S-9, AROCLOR 1254, Method: STANDARD PLATE)?
**A.** active; positive

**Q.** How did the mutagenic call [1] turn out when `O=[N+]([O-])c1c(O)ccc2ccccc12` was run?
**A.** active; positive

**Q.** Which mutagenic call (Test System: AMES SALMONELLA TYPHIMURIUM, Strain/Indicator: TM677, Metabolic Activation: RAT, LIVER, S-9, AROCLOR 1254, Method: PREINCUBATION) does the source give for `C=C1C[C@@]23CC[C@H]4[C@@](C)(CCC[C@@]4(C)C(=O)O)[C@@H]2CC[C@]1(O[C@@H]1O[C@H](CO)[C@@H](O)[C@H](O)[C@H]1O)C3` here?
**A.** active; positive

**Q.** Which mutagenic call (End Point: CHROMOSOMAL ABERRATIONS, Test System: HUMAN LYMPHOCYTES, Metabolic Activation: NONE, Method: FISH) does the source give for `COc1ccc2c(c1OC)C(=O)O[C@@H]2[C@H]1c2c(cc3c(c2OC)OCO3)CCN1C` here?
**A.** active; positive (ploidy changes)

**Q.** And the mutagenic call (End Point: In vivo micronucleus, Test System: Micronucleated, binucleated and multinucleated hepatocytes, Species: Mouse, Strain/Sex: ddY/Male, Route: Intravenous)?
**A.** active; positive for micronucleated, binucleated and multinucleated cells when agent adm

**Q.** What about the mutagenic call (End Point: MICRONUCLEUS, Test System: HUMAN LYMPHOCYTES, Metabolic Activation: NONE) of the same molecule?
**A.** active; positive (aneuploidy and polyploidy)

**Q.** For `CS(=O)(=O)Nc1ccc([N+](=O)[O-])cc1Oc1ccccc1`, which mutagenic call (End Point: IN VIVO CHROMOSOMAL ABERRATIONS, Test System: BONE MARROW CELLS, Species: MOUSE, Strain/Sex: SWISS/MALE, FEMALE, Route: GAVAGE (TEST MATERIAL SOLVENT: WATER)) is on record?
**A.** active; positive (structural changes)

**Q.** How did the mutagenic call (Test System: AMES SALMONELLA TYPHIMURIUM, Strain/Indicator: TA97, Metabolic Activation: NONE, Method: STANDARD PLATE) turn out when `CCC1(c2ccccc2)C(=O)N=C(O)NC1=O` (centres undefined) was run?
**A.** inactive; negative

**Q.** What about the mutagenic call (Test System: AMES SALMONELLA TYPHIMURIUM, Strain/Indicator: TA97, Metabolic Activation: RAT, LIVER, S-9, AROCLOR 1254, Method: STANDARD PLATE) of the same molecule?
**A.** inactive; negative

**Q.** And the mutagenic call [3]?
**A.** inactive; negative

**Q.** And the mutagenic call [4]?
**A.** inactive; negative

**Q.** And the mutagenic call [5]?
**A.** inactive; negative

**Q.** And the mutagenic call [6]?
**A.** inactive; negative

**Q.** What about the mutagenic call (Test System: AMES SALMONELLA TYPHIMURIUM, Strain/Indicator: TA102, Metabolic Activation: RAT, LIVER, S-9, AROCLOR 1254, Method: STANDARD PLATE) of the same molecule?
**A.** inactive; negative

**Q.** And the mutagenic call [7]?
**A.** active; positive

**Q.** Which mutagenic call [2] does the source give for `CC1OC1c1ccc(C#N)cc1` (centres undefined) here?
**A.** active; positive

**Q.** Which mutagenic call [3] does the source give for `c1cc2c3c(cccc3c1)C1NC21` (centres undefined) here?
**A.** active; positive

**Q.** And the mutagenic call [5]?
**A.** active; positive

**Q.** And the mutagenic call [8]?
**A.** active; positive
